Test [1] concerns RWLeu4. As to the kind of experiment: Change in cell surface marker (CD4) along monocyte-macrophage pathway on RWLeu-4 cells; value represents the percentage of total cells positive for CD4 marker. The format is functional, Homo sapiens.
Test [2] deals with RWLeu4. Briefly: Change in cell surface marker (CD11b) along monocyte-macrophage pathway on RWLeu-4 cells; value represents the percentage of total cells positive for CD11b marker. The format is functional, Homo sapiens.
Test [3] has as its system RWLeu4. As to the kind of experiment: Concentration required to decrease [3H]thymidine incorporation by 50 percent in RWLeu4 CML cell line as compared to untreated cells was determined. The format is functional, cell-based. The following applies: Homo sapiens.

Turning to `C=C1/C(=C\C=C2/CCC[C@@]3(C)C2CC[C@@H]3[C@H](C)/C=C/C(C)C(C)(O)CO)C[C@@H](O)C[C@@H]1O` (stereo partly specified), the Cells positive stood at 21% with RWLeu4 [1] and 89% in the test with RWLeu4 [2]. In the test on RWLeu4 [3], this compound yielded a half-inhibitory concentration (IC50) of 8 nM.
Turning to `C=C1/C(=C\C=C2/CCC[C@]3(C)[C@@H]([C@H](C)/C=C/C(CO)C(C)(C)O)CC[C@@H]23)C[C@@H](O)C[C@@H]1O` (stereo partly specified), in the test with RWLeu4 [3], the IC50 came to 96 nM.
`C=C1/C(=C\C=C2/CCC[C@@]3(C)C2CC[C@@H]3[C@H](C)/C=C/C(C)(O)C(C)(O)CO)C[C@@H](O)C[C@@H]1O` (stereo partly specified) displayed an IC50 in the test on RWLeu4 [3] of 11 nM. Compared with the last compound, the IC50 is about 8.7-fold lower.
In the test with RWLeu4 [3], `C=C1/C(=C\C=C2/CCC[C@@]3(C)C2CC[C@@H]3[C@H](C)/C=C/C(C)(O)C(C)(C)O)C[C@@H](O)C[C@@H]1O` (stereo partly specified) gave an IC50 of 11 nM.
As to `C=C1/C(=C\C=C2/CCC[C@]3(C)[C@@H]([C@H](C)/C=C/C(O)(CO)C(C)(C)O)CC[C@@H]23)C[C@@H](O)C[C@@H]1O` (stereo partly specified), in the test with RWLeu4 [3], the IC50 is more than 100 nM.
For `C=C1/C(=C\C=C2/CCC[C@]3(C)[C@@H]([C@H](C)/C=C/C(C)C(C)(C)O)CC[C@@H]23)C[C@@H](O)C[C@@H]1O` (stereo partly specified), the Cells positive turned out to be 15% in the test on RWLeu4 [1] and 88% in the test with RWLeu4 [2]. The same compound gave an IC50 in the test on RWLeu4 [3] of 13 nM.
`C=C1/C(=C\C=C2/CCC[C@]3(C)[C@@H]([C@H](C)CC[C@@H](O)C(C)(C)O)CC[C@@H]23)C[C@@H](O)C[C@@H]1O` gave a 50% inhibitory concentration (IC50) in the test with RWLeu4 [3] of 11 nM.

The record behind these values is ChEMBL document CHEMBL1126545, “Metabolism and biological activity of 1,25(OH)2D2 and its metabolites in a chronic myelogenous leukemia cell line, rwleu-4” (Bioorg Med Chem Lett, 1993).
